Patent US20160271028A1, “NOVEL USE OF PANDURATIN DERIVATIVES OR EXTRACT OF KAEMPFERIA PANDURATA COMPRISING THE SAME” (Newtree Co., Ltd., priority 2007, published 2016)

Tests used:
fibroblasts = test: MTT assay, cell proliferation of fibroblasts; type: cell-based
Description: MTT assay [3-(4,5-dimethylthiazol-2-yl)-2,5-diphenyltetrazolium bromide reduction method] was performed on fibroblasts to evaluate cell proliferation of the panduratin derivatives prepared in Examples 2 through 4. Epigallocatechin-3-O-gallate (EGCG), which is known to have skin wrinkle improvement effect, was selected as control substance.

MMP-1 = MMP-1 expression in fibroblasts by Western blotting and RT-PCR; type: cell-based; conditions: for expression of MMP-1 mRNAs: RT-PCR; for expression of MMP-1 proteins: Western blotting; for MMP-1 inhibition and procollagen promotion activity compared with the control substance EGCG: Western blotting and RT-PCR, covers MMP-1 and procollagen
Description: (§1) MMP-1 inhibition activity and procollagen synthesis promotion effect of the Kaempferia pandurata ethanol extract prepared in Example 1 were measured by Western blotting and reverse transcriptase-polymerase chain reaction (RT-PCR).
(§2) Specifically, proteins were extracted from cultured fibroblasts and quantitated using a protein assay reagent (Bio-Rad Laboratories Inc., Hercules, Calif., USA). For Western blotting, the proteins were heated for 3 minutes and, after cooling, transferred to a nitrocellulose membrane (Amersham International, Little Chalfont, England) through electrophoresis in 10% SDS-PAGE. The membrane was saturated with 5% skim milk in TBST (10 mM Tris, pH 7.5, 100 mM NaCl, 0.1% Tween 20). After blotting for 2 hours using primary antibodies (diluted to 1:1000), followed by washing with TBST, blotting was performed for 2 hours using secondary antibodies (diluted to 1:2000). After washing with TBST for 3 times, the blotted antibodies were analyzed using an ECL detection system (Amersham International, Little Chalfont, England).
(§3) For RT-PCR, RNAs were isolated from fibroblasts using TRIZOL (Invitrogen, USA). The isolated RNAs were quantitated using MMP-1 and procollagen primers and Taq polymerase. Specifically, RT-PCR was carried out using MMP-1 primer for 25 cycles, each cycle consisting of 30 seconds at 94° C., 1 minute at 50° C. and 1 minute at 72° C. And RT-PCR was carried out using procollagen primer for 28 cycles, each cycle consisting of 30 seconds at 94° C., 1 minute at 60° C. and 1 minute at 72° C. Then, after electrophoresis using 1% agarose gel, expression of mRNA for MMP-1 and procollagen was analyzed through ethidium bromide (EtBr) illumination.
(§4) MMP-1 inhibition activity and procollagen synthesis promotion effect of the panduratin derivatives prepared in Examples 2 through 4 were measured by Western blotting and RT-PCR in the same manner as Test Example 2-1.

procollagen = test: Procollagen synthesis in fibroblasts by Western blotting and RT-PCR; type: cell-based; conditions: for expression of procollagen mRNAs: RT-PCR; for expression of procollagen proteins: Western blotting
Description: as §1, §2, §3, §4

[1] = system: extracellular-regulated protein kinase (ERK); test: UV-induced activation (phosphorylation) of ERK in fibroblasts, Western blotting; type: cell-based, Human; conditions: CCD-986sk fibroblasts, UV 20 mJ/cm^2, 24 h pretreatment
Description: (§5) Human skin fibroblasts (CCD-986sk, ATCC, Manassas, Va., USA) were cultured in DMEM (Gibco, Grand Island, N.Y., USA). The fibroblasts were cultured on a 10 cm Petri dish (SPL, Seoul, Korea) to a concentration of 80% and further cultured for 24 hours in serum-free culture medium. Then, the cells were cultured for 24 hours in serum-free DMEM containing the panduratin A of Example 2. After replacing the culture medium with 5 mL of phosphate-buffered saline (PBS), the cells were exposed to UV (20 mJ/cm^2). Cells that were not exposed to UV were used as negative control group, and cells treated with EGCG were used as positive control group.
(§6) The fibroblasts were lysed in RIPA buffer (Sigma-Aldrich Co., St. Louis, Mo., USA) and proteins were quantitated using a protein assay reagent (Bio-Rad Laboratories Inc., Hercules, Calif., USA). […] After washing with TBST for 3 times, the blotted antibodies were analyzed using an ECL detection system (Amersham International, Little Chalfont, England). The detection level was measured using the software RFLPscan version 2.1.
(§7) Through this procedure, the change of activity of extracellular-regulated protein kinase (ERK), Jun-N-terminal kinase (JNK) and p38 kinase, which belong to the MAPKs, was measured.

[2] = system: Jun-N-terminal kinase (JNK); test: UV-induced activation (phosphorylation) of JNK in fibroblasts, Western blotting; type: cell-based, Human; conditions: CCD-986sk fibroblasts, UV 20 mJ/cm^2, 24 h pretreatment
Description: as §5, §6, §7

p38 kinase = test: UV-induced activation (phosphorylation) of p38 kinase in fibroblasts, Western blotting; type: cell-based, Human; conditions: CCD-986sk fibroblasts, UV 20 mJ/cm^2, 24 h pretreatment
Description: as §5, §6, §7

AP-1 = test: Electrophoretic mobility shift assay (EMSA), DNA binding activity of AP-1; type: cell-based, Human; conditions: nuclear proteins of UV-exposed fibroblasts
Description: as §5
Electrophoretic mobility shift assay (EMSA) was performed to measure the DNA binding activity of AP-1. Specifically, the fibroblasts, which were cultured in Test Example 3-1, to which panduratin A was added and which were exposed to UV, were washed with PBS and collected. […] Gel shift assay was carried out using quantitated nuclear proteins according to the manufacturer's instructions (Gel Shift Kit System; Panomics, Fremont, Calif., USA). Then, the detected proteins were analyzed with an ECL detection system (Amersham International, Little Chalfont, England) and the detection level was measured using the software RFLPscan version 2.1.
DNA binding activity of AP-1 was determined through this procedure.

c-Jun = c-Jun activity in UV-exposed fibroblasts, Western blotting; type: cell-based, Human
Description: as §5
(§8) The fibroblasts were lysed in RIPA buffer (Sigma-Aldrich Co., St. Louis, Mo., USA) and proteins were quantitated using a protein assay reagent (Bio-Rad Laboratories Inc., Hercules, Calif., USA). For Western blotting, the proteins were heated for 3 minutes and, after cooling, transferred to a nitrocellulose membrane (Amersham International, Little Chalfont, England) through electrophoresis in 10% SDS-PAGE. The membrane was saturated with 5% skim milk in TBST (10 mM Tris, pH 7.5, 100 mM NaCl, 0.1% Tween 20). […] After washing with TBST for 3 times, the blotted antibodies were analyzed using an ECL detection system (Amersham International, Little Chalfont, England). The detection level was measured using the software RFLPscan version 2.1. […]

c-Fos = c-Fos activity in UV-exposed fibroblasts, Western blotting; type: cell-based, Human
Description: as §5, §8

[3] = system: hairless mice (Hos: HR-1); test: Wrinkle improvement in UV-exposed hairless mice, application on skin; type: in vivo
Description: Forty eight 6-week-old female hairless mice (Hos: HR-1) were accustomed for a week and randomly divided into 6 groups, 8 per each. The hairless mice (Hos:HR-1) were exposed to UV for 8 weeks. UV irradiation was carried out 3 times a week, from 1 MED (1 MED=50 mJ/cm^2) to 4 MED, until the end of the test. The 6 test groups were: non UV-treated group, UV-treated group, UV- and Kaempferia pandurata ethanol extract (0.1%, 0.5%)-treated group, and UV- and panduratin A (1 mM, 5 mM)-treated group. Each sample was dissolved in a mixture solvent of ethanol and polyethylene glycol (7:3, v/v) and 50 μL was applied on the back of the mice every day for 8 weeks. For the non UV-treated group and the UV-treated group, 50 μL of a mixture of ethanol and polyethylene glycol (7:3, v/v) was applied.
In order to investigate wrinkle prevention effect, skin replicas were taken using silicone polymer (SILFLO Impression Material, Flexico, England). The image files of the skin replicas were subjected to wrinkle evaluation using the computer image analysis software Skin Visiometer SV 600 (Courage+Khazaha Electronic, Kln, Germany) Rt, Rm, Rz and Ra values (Rt: the distance from the highest and lowest portions on the skin surface, Rm: the maximum Rt value of 5 measurements, Rz: the mean Rt value of 5 measurements, Ra: the arithmetic mean surface roughness) were determined.

[4] = application on skin, 8 weeks, p<0.05

| Compound | Proliferation effect (%) (fibroblasts; 0.001 μM) | Proliferation effect (%) (fibroblasts; 0.01 μM) | Proliferation effect (%) (fibroblasts; 0.1 μM) | Proliferation effect (%) (fibroblasts; 1 μM) | Proliferation effect (%) (fibroblasts; 10 μM) | Proliferation effect (%) (fibroblasts; 50 μM) | expression of MMP-1 mRNAs (MMP-1) | expression of MMP-1 proteins (MMP-1) | MMP-1 inhibition and procollagen promotion activity compared with the control substance EGCG (MMP-1) | expression of procollagen mRNAs (procollagen) | expression of procollagen proteins (procollagen) | also measured |
| --- | --- | --- | --- | --- | --- | --- | --- | --- | --- | --- | --- | --- |
| CC(C)=CC[C@@H]1C(C)=CC[C@@H](c2ccccc2)[C@@H]1C(=O)c1c(O)cc(O)cc1O [4-Hydroxypanduratin A, 4-hydroxypanduratin A] | 101% | 102% | 109% | 119% | 121% | 128% | decrease of MMP-1 proteins and mRNAs in a concentration-dependent manner | decrease of MMP-1 proteins and mRNAs in a concentration-dependent manner | better activity than the control substance EGCG | increased in a concentration-dependent manner | increased in a concentration-dependent manner | – |
| COc1cc(O)cc(O)c1C(=O)[C@@H]1[C@H](CC=C(C)C)C(C)=CC[C@H]1c1ccccc1 [Isopanduratin A, isopanduratin A] | 102% | 102% | 110% | 120% | 124% | 130% | decrease of MMP-1 proteins and mRNAs in a concentration-dependent manner | decrease of MMP-1 proteins and mRNAs in a concentration-dependent manner | better activity than the control substance EGCG | increased in a concentration-dependent manner | increased in a concentration-dependent manner | – |
| COc1cc(O)c(C(=O)[C@@H]2[C@H](CC=C(C)C)C(C)=CC[C@H]2c2ccccc2)c(O)c1 [Panduratin A, panduratin A] | 103% | 104% | 111% | 120% | 126% | 131% | decrease of MMP-1 proteins and mRNAs in a concentration-dependent manner | decrease of MMP-1 proteins and mRNAs in a concentration-dependent manner | better activity than the control substance EGCG | increased in a concentration-dependent manner | increased in a concentration-dependent manner | activation of ERK [1]: suppressed in a concentration-dependent manner; activation of JNK [2]: suppressed in a concentration-dependent manner; activation of p38 kinase (p38 kinase): suppressed in a concentration-dependent manner; binding of AP-1 to DNA (AP-1): inhibited binding of AP-1 to DNA in a concentration-dependent manner; c-Jun activity (c-Jun): inhibited c-Jun and c-Fos activity in a concentration-dependent manner; c-Fos activity (c-Fos): inhibited c-Jun and c-Fos activity in a concentration-dependent manner; wrinkling (skin replicas) as compared to the UV-treated group ([3]; 50 μL on the back daily for 8 weeks, extract 0.1% and 0.5%, panduratin A 1 mM and 5 mM): remarkably decreased wrinkling; Ra value (arithmetic mean surface roughness) [3, 4]: significantly decreased; Rm value (maximum Rt value of 5 measurements) [3, 4]: significantly decreased; Rt value (distance from the highest and lowest portions on the skin surface) [3, 4]: significantly decreased; Rz value (mean Rt value of 5 measurements) [3, 4]: significantly decreased |
| Epigallocatechin-3-O-gallate [EGCG, reference compound] | 102% | 104% | 107% | 119% | 120% | 126% | – | – | – | – | – | – |
